Experimental findings from ChEMBL document CHEMBL4507327 (2021) are described below.

The nature of series [1]: GPCRScan assay: inhibition of GABA/PBR. Also noted: species or system Rattus norvegicus; radioligand conc. used [nm] 0.3 – 2.0, parental cells brain tissue.
In series [2] the target is Mitogen-activated protein kinase 4 (Homo sapiens, UniProt P31152). Nature of the series: ERK4(MAP4LGY1) Takeda global kinase panel.
The target of series [3] is Serine/threonine-protein kinase Nek8 (Homo sapiens, UniProt Q86SG6). Nature of the series: Nek8(NEK8LGRI) Takeda global kinase panel.
Series [4] concerns the target Serine/threonine-protein kinase N2 (Homo sapiens, UniProt Q16513). Nature of the series: PKN2 [PRK2(PKN2LGG5)] Takeda global kinase panel.
The target of series [5] is T1, 5-hydroxytryptamine receptor 1A (Homo sapiens) (UniProt P08908).
T1 sequence (whole entry): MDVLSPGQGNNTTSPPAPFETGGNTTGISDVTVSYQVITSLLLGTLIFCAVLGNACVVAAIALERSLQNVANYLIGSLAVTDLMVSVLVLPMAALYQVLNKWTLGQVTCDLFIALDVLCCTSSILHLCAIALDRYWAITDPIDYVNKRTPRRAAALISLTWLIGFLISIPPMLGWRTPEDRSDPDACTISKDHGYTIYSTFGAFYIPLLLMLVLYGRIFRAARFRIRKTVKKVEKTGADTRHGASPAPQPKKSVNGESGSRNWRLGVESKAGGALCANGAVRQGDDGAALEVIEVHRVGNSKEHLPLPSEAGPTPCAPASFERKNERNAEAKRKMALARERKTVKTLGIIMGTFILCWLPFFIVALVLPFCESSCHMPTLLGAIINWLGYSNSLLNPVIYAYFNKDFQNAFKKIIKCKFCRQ
Particulars: Compound concentration 10.0 uM; call rule not given here.

Series [6] addresses 5-hydroxytryptamine receptor 2C (Homo sapiens) (UniProt P28335). Particulars: Compound concentration 10.0 uM.
Series [7] concerns the target 5-hydroxytryptamine receptor 6 (Homo sapiens) (UniProt P50406). Particulars: Compound concentration 10.0 uM.
Series [8] has as its target D(4) dopamine receptor (Homo sapiens) (UniProt P21917). The settings on record: Compound concentration 10.0 uM.
Series [9] addresses Histamine H1 receptor (Homo sapiens) (UniProt P35367). The settings on record: Compound concentration 10.0 uM.
Series [10] deals with Histamine H2 receptor (Homo sapiens) (UniProt P25021). The settings on record: Compound concentration 10.0 uM.
Chain of Histamine H2 receptor (Homo sapiens) (P25021 whole entry): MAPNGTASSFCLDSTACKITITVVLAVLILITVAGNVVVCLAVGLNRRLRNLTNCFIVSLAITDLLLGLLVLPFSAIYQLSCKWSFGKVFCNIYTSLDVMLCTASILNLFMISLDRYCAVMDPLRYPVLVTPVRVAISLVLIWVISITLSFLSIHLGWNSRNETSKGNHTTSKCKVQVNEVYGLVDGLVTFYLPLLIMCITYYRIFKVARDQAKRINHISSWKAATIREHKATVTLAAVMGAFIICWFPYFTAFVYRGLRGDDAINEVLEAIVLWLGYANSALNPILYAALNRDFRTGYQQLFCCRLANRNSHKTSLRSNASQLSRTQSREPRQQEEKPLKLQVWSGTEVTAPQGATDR
The target of series [11] is Alpha-2B adrenergic receptor (Homo sapiens) (UniProt P18089). Particulars: Compound concentration 10.0 uM.
Series [12] has as its target Alpha-2C adrenergic receptor (Homo sapiens) (UniProt P18825). The settings on record: Compound concentration 10.0 uM.
The target in series [13] is Beta-1 adrenergic receptor (Homo sapiens) (UniProt P08588). Particulars: Compound concentration 10.0 uM.
Chain of Beta-1 adrenergic receptor (Homo sapiens) (P08588 whole entry, looked up): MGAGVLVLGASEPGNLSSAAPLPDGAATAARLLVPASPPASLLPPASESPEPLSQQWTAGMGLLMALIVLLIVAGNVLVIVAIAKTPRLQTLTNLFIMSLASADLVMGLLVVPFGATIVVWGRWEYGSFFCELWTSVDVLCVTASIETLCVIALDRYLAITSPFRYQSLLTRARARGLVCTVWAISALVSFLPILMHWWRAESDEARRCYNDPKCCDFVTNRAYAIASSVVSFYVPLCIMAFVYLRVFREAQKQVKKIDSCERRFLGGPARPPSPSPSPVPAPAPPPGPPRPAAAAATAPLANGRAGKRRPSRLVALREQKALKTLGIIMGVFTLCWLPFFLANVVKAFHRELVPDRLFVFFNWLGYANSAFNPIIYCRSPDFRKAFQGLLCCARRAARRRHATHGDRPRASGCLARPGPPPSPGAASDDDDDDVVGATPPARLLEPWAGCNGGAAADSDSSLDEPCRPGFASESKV
The target in series [14] is Beta-2 adrenergic receptor (Homo sapiens) (UniProt P07550). The settings on record: Compound concentration 10.0 uM.
Series [15] addresses Sigma non-opioid intracellular receptor 1 (Homo sapiens) (UniProt Q99720). The settings on record: Compound concentration 10.0 uM.
The target in series [16] is Alpha-2A adrenergic receptor (Homo sapiens) (UniProt P08913). The settings on record: Compound concentration 10.0 uM.
Chain of Alpha-2A adrenergic receptor (Homo sapiens) (P08913 whole entry): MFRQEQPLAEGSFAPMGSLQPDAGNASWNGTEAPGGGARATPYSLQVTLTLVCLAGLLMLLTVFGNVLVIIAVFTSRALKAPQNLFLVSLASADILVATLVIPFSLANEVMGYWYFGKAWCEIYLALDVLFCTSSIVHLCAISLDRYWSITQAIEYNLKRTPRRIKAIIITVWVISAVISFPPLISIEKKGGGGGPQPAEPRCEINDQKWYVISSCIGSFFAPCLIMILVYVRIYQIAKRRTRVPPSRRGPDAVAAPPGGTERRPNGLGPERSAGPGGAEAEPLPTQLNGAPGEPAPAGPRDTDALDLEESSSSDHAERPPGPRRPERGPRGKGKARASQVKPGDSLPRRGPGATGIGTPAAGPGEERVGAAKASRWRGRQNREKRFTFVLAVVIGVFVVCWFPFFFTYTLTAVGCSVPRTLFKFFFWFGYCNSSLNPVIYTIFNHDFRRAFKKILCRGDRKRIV
The target in series [17] is Beta-1 adrenergic receptor (Homo sapiens) (UniProt P08588). Particulars: Compound concentration 10.0 uM. The source holds these as a separate data set.
For series [18], the target named is Endothelin-1 receptor (Homo sapiens) (UniProt P25101). The settings on record: Compound concentration 10.0 uM.
Series [19] deals with L-type calcium channel, benzothiazepine site (Cav1.2 alpha-1C) (Homo sapiens, UniProt Q13936). The series is described as follows: Inhibition of Calcium Channel L-Type, Benzothiazepine at 10 µM in the Eurofins-Panlabs radioligand binding assay (Eurofins_assay_214510). The arrangement: ligand concentration 2 nM, non-specific ligand with concentration 10 µM Diltiazem, incubation time 3h, incubation temperature 4 °C. The settings on record: male, Wistar, rat, whole brain of rats, probe [3H] Diltiazem; compound concentration 10 uM; target entry is the homologue from another species.

Another series deals with hERG (KCNH2) (Homo sapiens, UniProt Q12809). The series is described as follows: Inhibition of Potassium Channel hERG at 10 µM in the Eurofins-Panlabs radioligand binding assay (Eurofins_assay_265900). The arrangement: ligand concentration 1.5 nM, non-specific ligand with concentration Astemizole, incubation time 60 min, incubation temperature 25 °C. The settings on record: HEK-293 cells that express human recombinant hERG, probe [3H] Astemizole, compound concentration 10 uM.

Series [20] concerns the target Inhibitor of nuclear factor kappa-B kinase subunit alpha (Homo sapiens, UniProt O15111). The series is described as follows: IKKalpha(CHUKLGP1) Takeda global kinase panel.
The target of series [21] is Inhibitor of nuclear factor kappa-B kinase subunit beta (Homo sapiens, UniProt O14920). Nature of the series: IKKbeta(IKBBLHY1) Takeda global kinase panel.
Series [22] addresses MAP kinase-activated protein kinase 2 (Homo sapiens, UniProt P49137). The series is described as follows: MAPKAPK2(MPK2LGRH) Takeda global kinase panel.
Series [23] concerns the target MAP kinase-activated protein kinase 5 (Homo sapiens, UniProt Q8IW41). Nature of the series: MAPKAPK5(MPK5LGN1) Takeda global kinase panel.
Series [24] concerns the target cAMP-dependent protein kinase catalytic subunit beta (Homo sapiens, UniProt P22694). The series is described as follows: PKAbeta(PRCBLGF1) Takeda global kinase panel.
Series [25] has as its target Calcium/calmodulin-dependent protein kinase type 1D (Homo sapiens, UniProt Q8IU85). The series is described as follows: CaMK1delta(CA1DLGT5) Takeda global kinase panel.
Series [26] addresses Calcium/calmodulin-dependent protein kinase kinase 1 (Homo sapiens, UniProt Q8N5S9). Nature of the series: CAMKK1(CAK1LGT5) Takeda global kinase panel.
Series [27] deals with Cyclin-dependent kinase-like 1 (Homo sapiens, UniProt Q00532). Nature of the series: CDKL1(CDL1LGT1) Takeda global kinase panel.
For series [28], the target named is Epithelial discoidin domain-containing receptor 1 (Homo sapiens, UniProt Q08345). Nature of the series: DDR1(DDR1LGF1) Takeda global kinase panel.
Chain of Epithelial discoidin domain-containing receptor 1 (Q08345 whole entry, the tested form may be a part): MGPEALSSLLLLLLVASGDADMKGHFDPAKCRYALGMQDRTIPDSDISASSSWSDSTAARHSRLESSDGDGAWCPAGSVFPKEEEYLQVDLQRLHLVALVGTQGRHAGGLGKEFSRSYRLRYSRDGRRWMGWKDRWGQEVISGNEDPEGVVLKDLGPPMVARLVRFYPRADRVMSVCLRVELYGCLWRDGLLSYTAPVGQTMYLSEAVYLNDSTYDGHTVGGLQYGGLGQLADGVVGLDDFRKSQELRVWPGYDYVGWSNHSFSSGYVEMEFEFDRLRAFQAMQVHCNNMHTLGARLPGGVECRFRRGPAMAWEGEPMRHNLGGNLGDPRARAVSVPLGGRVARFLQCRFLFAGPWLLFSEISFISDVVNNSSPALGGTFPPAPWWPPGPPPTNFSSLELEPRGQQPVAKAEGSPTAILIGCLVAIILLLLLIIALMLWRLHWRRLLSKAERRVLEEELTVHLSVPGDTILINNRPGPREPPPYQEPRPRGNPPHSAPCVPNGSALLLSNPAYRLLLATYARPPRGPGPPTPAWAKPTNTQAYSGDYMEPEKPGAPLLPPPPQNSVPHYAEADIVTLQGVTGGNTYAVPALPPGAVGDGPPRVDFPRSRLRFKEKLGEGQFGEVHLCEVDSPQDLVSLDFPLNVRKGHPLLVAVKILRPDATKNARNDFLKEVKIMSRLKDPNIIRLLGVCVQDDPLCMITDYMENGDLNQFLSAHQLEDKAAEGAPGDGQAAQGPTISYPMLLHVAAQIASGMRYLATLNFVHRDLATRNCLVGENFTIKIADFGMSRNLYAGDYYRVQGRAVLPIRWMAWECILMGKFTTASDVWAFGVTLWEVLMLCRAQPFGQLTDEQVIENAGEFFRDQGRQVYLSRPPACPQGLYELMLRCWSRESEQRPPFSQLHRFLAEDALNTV
The target in series [29] is Tyrosine-protein kinase JAK2 (Homo sapiens, UniProt O60674). The series is described as follows: JAK2(JAK2LGF1) Takeda global kinase panel.
Series [30] has as its target Dual specificity mitogen-activated protein kinase kinase 7 (Homo sapiens, UniProt O14733). Nature of the series: MAP2K7(M2K7CGRI) Takeda global kinase panel.
Another series deals with Myosin-IIIa (Homo sapiens, UniProt Q8NEV4). The series is described as follows: MYO3A(MY3ALGRI) Takeda global kinase panel.
Series [31] addresses Proto-oncogene tyrosine-protein kinase receptor Ret (Homo sapiens, UniProt P07949). Nature of the series: Ret(RET1LGF1) Takeda global kinase panel.
For series [32], the target named is Serine/threonine-protein kinase Sgk1 (Homo sapiens, UniProt O00141). Nature of the series: SGK1(SGK1LGF1) Takeda global kinase panel.
In series [33] the target is Proto-oncogene tyrosine-protein kinase Src (Homo sapiens, UniProt P12931). Nature of the series: Src(SRC1LGF5) Takeda global kinase panel.
Series [34] has as its target Serine/threonine-protein kinase 25 (Homo sapiens, UniProt O00506). The series is described as follows: YSK1(ST25LHY1) Takeda global kinase panel.
For series [35], the target named is Serine/threonine-protein kinase TAO1 (Homo sapiens, UniProt Q7L7X3). Nature of the series: TAO1(TAO1LGF1) Takeda global kinase panel.
Series [36] concerns the target Histamine H2 receptor (Homo sapiens) (UniProt P25021). Particulars: Compound concentration 10.0 uM. The source holds these as a separate data set.

Chain of Serine/threonine-protein kinase N2 (Q16513 whole entry): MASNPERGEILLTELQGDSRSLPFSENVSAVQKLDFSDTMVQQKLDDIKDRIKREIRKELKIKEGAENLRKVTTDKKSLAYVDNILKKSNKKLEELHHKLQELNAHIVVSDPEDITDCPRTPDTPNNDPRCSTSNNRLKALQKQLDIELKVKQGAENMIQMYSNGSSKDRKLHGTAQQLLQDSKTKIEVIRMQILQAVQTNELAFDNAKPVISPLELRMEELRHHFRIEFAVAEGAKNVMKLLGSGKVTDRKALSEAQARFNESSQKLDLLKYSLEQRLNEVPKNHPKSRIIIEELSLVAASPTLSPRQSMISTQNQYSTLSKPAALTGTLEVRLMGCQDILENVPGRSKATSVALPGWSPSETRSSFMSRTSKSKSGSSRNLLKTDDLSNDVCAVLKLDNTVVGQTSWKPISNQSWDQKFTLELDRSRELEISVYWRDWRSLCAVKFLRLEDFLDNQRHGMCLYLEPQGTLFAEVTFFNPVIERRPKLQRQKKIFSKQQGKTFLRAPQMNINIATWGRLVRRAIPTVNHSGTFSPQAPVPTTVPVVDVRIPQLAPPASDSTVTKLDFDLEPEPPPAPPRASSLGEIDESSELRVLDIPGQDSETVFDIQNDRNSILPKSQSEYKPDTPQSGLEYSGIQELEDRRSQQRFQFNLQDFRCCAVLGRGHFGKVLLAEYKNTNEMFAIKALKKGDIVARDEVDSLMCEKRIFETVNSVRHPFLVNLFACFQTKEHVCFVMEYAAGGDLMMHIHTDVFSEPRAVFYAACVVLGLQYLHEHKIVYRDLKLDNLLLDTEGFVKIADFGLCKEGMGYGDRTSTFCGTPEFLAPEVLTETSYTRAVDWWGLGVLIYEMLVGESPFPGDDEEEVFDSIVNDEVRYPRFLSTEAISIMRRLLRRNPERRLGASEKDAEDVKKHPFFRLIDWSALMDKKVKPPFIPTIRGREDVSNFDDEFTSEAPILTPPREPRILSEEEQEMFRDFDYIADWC
Chain of Inhibitor of nuclear factor kappa-B kinase subunit alpha (O15111 whole entry): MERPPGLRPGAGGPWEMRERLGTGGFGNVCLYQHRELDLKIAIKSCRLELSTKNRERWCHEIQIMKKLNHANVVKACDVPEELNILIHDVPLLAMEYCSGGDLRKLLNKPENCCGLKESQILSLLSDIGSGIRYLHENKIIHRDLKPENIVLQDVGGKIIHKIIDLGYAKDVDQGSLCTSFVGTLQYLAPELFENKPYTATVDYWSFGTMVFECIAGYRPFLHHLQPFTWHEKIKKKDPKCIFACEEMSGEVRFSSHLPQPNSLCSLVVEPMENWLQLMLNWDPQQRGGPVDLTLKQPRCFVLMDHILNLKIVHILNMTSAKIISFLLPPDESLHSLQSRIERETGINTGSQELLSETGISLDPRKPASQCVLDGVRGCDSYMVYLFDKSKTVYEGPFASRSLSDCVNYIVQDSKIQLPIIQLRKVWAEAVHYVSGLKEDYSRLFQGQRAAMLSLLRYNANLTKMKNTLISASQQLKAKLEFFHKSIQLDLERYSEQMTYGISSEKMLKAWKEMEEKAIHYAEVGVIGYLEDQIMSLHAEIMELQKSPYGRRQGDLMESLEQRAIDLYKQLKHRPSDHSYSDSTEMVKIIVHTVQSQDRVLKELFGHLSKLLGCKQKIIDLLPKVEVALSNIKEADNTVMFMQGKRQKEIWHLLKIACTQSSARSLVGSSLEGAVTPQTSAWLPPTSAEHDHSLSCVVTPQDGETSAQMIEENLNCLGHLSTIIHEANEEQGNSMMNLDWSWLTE
Chain of MAP kinase-activated protein kinase 2 (P49137 whole entry): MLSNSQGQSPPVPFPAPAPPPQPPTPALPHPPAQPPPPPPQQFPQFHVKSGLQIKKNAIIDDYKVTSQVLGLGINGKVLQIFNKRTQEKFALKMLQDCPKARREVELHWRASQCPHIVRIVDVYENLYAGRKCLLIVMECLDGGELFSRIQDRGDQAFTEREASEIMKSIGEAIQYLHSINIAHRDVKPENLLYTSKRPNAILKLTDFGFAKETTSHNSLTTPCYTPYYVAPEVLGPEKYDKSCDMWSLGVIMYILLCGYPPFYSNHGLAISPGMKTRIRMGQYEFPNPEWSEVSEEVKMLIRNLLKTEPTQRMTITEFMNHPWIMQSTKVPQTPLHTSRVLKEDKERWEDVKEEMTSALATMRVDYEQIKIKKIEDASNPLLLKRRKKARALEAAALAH
Chain of Calcium/calmodulin-dependent protein kinase kinase 1 (Q8N5S9 whole entry): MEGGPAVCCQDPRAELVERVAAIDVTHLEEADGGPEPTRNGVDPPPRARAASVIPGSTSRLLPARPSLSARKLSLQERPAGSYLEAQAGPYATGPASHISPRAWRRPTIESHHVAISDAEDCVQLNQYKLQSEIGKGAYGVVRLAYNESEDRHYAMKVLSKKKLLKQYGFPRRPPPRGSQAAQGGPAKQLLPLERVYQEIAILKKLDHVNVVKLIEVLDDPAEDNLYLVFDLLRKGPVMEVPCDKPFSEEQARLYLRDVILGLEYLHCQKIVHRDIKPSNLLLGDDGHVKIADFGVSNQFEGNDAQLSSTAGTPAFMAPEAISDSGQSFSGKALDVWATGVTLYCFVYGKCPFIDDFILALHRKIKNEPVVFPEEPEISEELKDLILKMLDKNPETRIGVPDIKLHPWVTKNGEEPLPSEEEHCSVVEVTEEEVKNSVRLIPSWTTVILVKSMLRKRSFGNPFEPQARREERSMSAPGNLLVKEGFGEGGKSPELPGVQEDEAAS

One may read the Ki as a dissociation constant, usually derived from enzyme kinetics or from competition with a known ligand. Usually pKi stands for the negative decadic logarithm of the Ki, by convention in mol/L. Broadly, the IC50 is the concentration needed to halve the response being measured. In general, inhibition refers to the change of the read-out against control, counted positive when it falls. Turning to `CN1C(=O)[C@@H](N2CCc3cn(Cc4ccccc4)nc3C2=O)COc2ccccc21` [TP-030-1], in series [1], the inhibition constant Ki amounted to 0.375 µM. The pKi in series [1] came out at 6.425. Moreover, the IC50 in series [2], in [3] and in series [4] was 1 µM throughout. Besides, the inhibition in series [5] was 5.07%; in series [6], -2.89%; in [7], -3.95%; in series [8], 17.4%; in [9], 20.5%; in [10], 11.9%. The inhibition in series [11] was 43.3%; in series [12], 34.7%; in [13] it was 5.21%; in series [14], 9.59%; in [15], -1.9%; in series [16], 7%. The inhibition in series [17] was -8%; in series [18], -5%.

In the case of `CN1C(=O)[C@@H](N2CCc3cn(CC4CCS(=O)(=O)CC4)nc3C2=O)COc2ccccc21` [TP-030n], the inhibition at 3 h, 10 µM in series [19] is 2% (not active). Besides, the inhibition at 60 min, 10 µM on hERG (KCNH2) was 11% (not active). Also, the concentration for half-maximal inhibition (IC50) in series [20], in series [21], in series [22], in series [23], in series [24] and in series [25] was 1 µM throughout. The IC50 (in [26]; in series [27]; in series [28]; in series [29]; in series [30]; against Myosin-IIIa) was 1 µM in each case. The concentration for half-maximal inhibition (IC50) in series [31], in [32], in series [33], in series [34] and in series [35] was 1 µM each time. Further, the inhibition in series [36] is -10%.
